Data published in article PMC5784824 (Journal of immunology (Baltimore, Md. : 1950), 2017).

How the values were obtained:
hP2X7 = target: T1, hP2X7 (Homo sapiens, UniProt Q99572); test: Fura-2 intracellular Ca2+ measurement in over-expressing […]1 cells; type: cell-based; details: agonist; pH 7.4; 1.5 mM CaCl2 buffer
T1 sequence (Q99572 1-595): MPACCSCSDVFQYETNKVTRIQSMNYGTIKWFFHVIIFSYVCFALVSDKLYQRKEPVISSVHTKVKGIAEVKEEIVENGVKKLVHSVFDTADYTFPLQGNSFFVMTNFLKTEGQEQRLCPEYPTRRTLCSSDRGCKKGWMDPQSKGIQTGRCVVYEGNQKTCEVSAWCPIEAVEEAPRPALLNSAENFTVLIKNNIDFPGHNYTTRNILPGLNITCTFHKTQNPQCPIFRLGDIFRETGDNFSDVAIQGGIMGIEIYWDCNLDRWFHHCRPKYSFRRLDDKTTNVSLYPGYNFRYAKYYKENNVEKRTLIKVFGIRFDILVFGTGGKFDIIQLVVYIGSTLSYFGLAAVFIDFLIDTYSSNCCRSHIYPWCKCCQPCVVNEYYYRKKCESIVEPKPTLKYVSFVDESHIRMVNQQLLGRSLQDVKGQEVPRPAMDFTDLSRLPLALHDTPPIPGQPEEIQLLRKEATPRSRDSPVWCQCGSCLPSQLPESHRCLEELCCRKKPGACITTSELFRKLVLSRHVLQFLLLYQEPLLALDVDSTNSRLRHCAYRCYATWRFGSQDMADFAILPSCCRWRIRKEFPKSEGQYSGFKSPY

hP2X4 = target: T2, hP2X4 (Homo sapiens, UniProt Q99571); test: as above; type: cell-based; details: agonist; pH 7.4; 1.5 mM CaCl2 buffer
T2 sequence (Q99571 1-388): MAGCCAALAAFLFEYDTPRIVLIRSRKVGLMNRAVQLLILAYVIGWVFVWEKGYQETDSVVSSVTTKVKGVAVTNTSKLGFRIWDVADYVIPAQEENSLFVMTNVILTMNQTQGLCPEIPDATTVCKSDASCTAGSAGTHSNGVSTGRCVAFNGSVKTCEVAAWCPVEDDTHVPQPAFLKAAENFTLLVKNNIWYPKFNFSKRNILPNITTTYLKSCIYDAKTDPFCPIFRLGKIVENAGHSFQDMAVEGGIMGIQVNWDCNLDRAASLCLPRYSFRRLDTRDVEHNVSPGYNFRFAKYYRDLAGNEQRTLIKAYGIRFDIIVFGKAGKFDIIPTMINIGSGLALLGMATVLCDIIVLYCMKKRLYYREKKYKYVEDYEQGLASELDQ

Nc1ncnc2c1ncn2[C@@H]1O[C@H](COP(=O)(O)OP(=O)(O)OP(=O)(O)O)[C@@H](O)[C@H]1O [ATP]
Ca2+ response (no activation) at 100 μM ATP (hP2X7): in over-expressing cells illustrated maximal activation of P2X4 and no activation of P2X7
Ca2+ response (activation) at 100 μM ATP (hP2X4): in over-expressing cells illustrated maximal activation of P2X4 and no activation of P2X7
